Laboratory results: patent US20100311580A1, “Active Compound Combinations” (Bayer CropScience AG, priority 2007, published 2010)

Key:
Type in all cases: in vivo
Phaedon cochleariae = Phaedon cochleariae test (spray on cabbage leaves); conditions: larvae
Procedure: Solvent: 7 parts by weight of dimethylformamide
Emulsifier: 2 parts by weight of alkylaryl polyglycolether
(§1) To produce a suitable preparation of active compound, 1 part by weight of active compound is mixed with the stated amount of solvent and emulsifier, and the concentrate is diluted with emulsifier-containing water to the desired concentration.
Cabbage leaves (Brassica oleracea) are treated by being sprayed with the preparation of the active compound at the desired concentration and are infested with larvae of the mustard beetle (Phaedon cochleariae) as long as the leaves are still moist.
After the specified period of time, the mortality in % is determined. 100% means that all the beetle larvae have been killed; 0% means that none of the beetle larvae have been killed.

Nilaparvata lugens = Nilaparvata lugens test (spray on rice plants); conditions: larvae
Procedure: Solvent: 7 parts by weight of dimethylformamide Emulsifier: 2 parts by weight of alkylaryl polyglycolether
as §1
Rice plants (Oryza sativa) are treated by being sprayed with the preparation of the active compound at the desired concentration and are infested with larvae of the Brown plant hopper (Nilaparvata lugens) as long as the leaves are still moist.
After the specified period of time, the mortality in % is determined. 100% means that all the hopper larvae have been killed; 0% means that none of the hopper larvae have been killed.

[1] = tested on: Blumeria graminis f. sp. hordei; assay: Blumeria test (barley)/SAR 5d; conditions: 1000 ppm, inoculation 5 days after spraying, evaluated 7 days after inoculation
Procedure: Solvent: 50 parts by weight of n,n-dimethylacetamid Emulsifier: 1 part by weight of alkylaryl polyglycol ether
To produce a suitable preparation of active compound, 1 part by weight of active compound or active compound combination is mixed with the stated amounts of solvent and emulsifier, and the concentrate is diluted with water to the desired concentration.
To test for systemic activated resistance, young plants are sprayed with the preparation of active compound or active compound combination at the stated rate of application. After the spray coating has dried on, the plants are placed in a greenhouse at a temperature of approximately 18° C. and a relative atmospheric humidity of approximately 80%.
5 days after spraying, the plants are dusted with spores of Blumeria graminis f. sp. hordei. The plants then remain in a greenhouse at a temperature of approximately 18° C. and a relative atmospheric humidity of approximately 80% to promote the development of mildew pustules.
The test is evaluated 7 days after the inoculation, 1. and 2. leaf separated. 0% means an efficacy with corresponds to that of the control while an efficacy of 100% means that no disease is observed.

| SMILES | Efficacy in % after 3 d (mortality) (Phaedon cochleariae; 4 ppm) [%] | Efficacy in % ([1]; 1st leaf) [%] | Efficacy in % ([1]; 2nd leaf) [%] | also measured |
| --- | --- | --- | --- | --- |
| N#C/N=C1\SCCN1Cc1ccc(Cl)nc1 [Thiacloprid, thiacloprid] | 5 | – | – | – |
| CN/C(=N\[N+](=O)[O-])NCc1cnc(Cl)s1 [Clothianidin, clothianidin] | 15 | – | – | – |
| N#Cc1ccccc1NC(=O)c1snc(Cl)c1Cl [Isotianil, 3,4-dichloro-N-(2-cyanophenyl)-5-isothiazolecarboxamide] | – | 44 | 44 | Efficacy in % after 3 d (mortality) (Nilaparvata lugens; 200 ppm): 0%; Efficacy in % after 3 d (mortality) (Phaedon cochleariae; 200 ppm): 0%; Efficacy in % after 6 d (mortality) (Phaedon cochleariae; 200 ppm): 0% |
| O=[N+]([O-])NC1=NCCN1Cc1ccc(Cl)nc1 [Imidacloprid, imidacloprid] | – | – | – | Efficacy in % after 3 d (mortality) (Nilaparvata lugens; 0.8 ppm): 0% |
| Cc1cc(C(F)(C(F)(F)F)C(F)(F)F)ccc1NC(=O)c1cccc(I)c1C(=O)NC(C)(C)CS(C)(=O)=O [Flubendiamide, flubendiamide] | 0 | 22 | 22 | Efficacy in % after 3 d (mortality) (Nilaparvata lugens; 0.16 ppm): 0%; Efficacy in % after 3 d (mortality) (Phaedon cochleariae; 0.8 ppm): 0%; Efficacy in % after 6 d (mortality) (Phaedon cochleariae; 4 ppm): 0% |
